In publication PMC12888869, “A short antimicrobial peptides family demonstrates efficacy to infection via a multimodal mechanism of action” (Antimicrobial Agents and Chemotherapy, 2025):
Like-named read-outs stand apart in the source and are kept apart here. No end group written: not given here.

What was measured:
E. coli (ATCC 25922) = assay type: cell-based, Escherichia coli
Description: (§1) Two MDR bacteria, MDR-E. coli (LZ-7, drug resistance: compound sulfamethoxazole, ampicillin, gentamicin, ciprofloxacin, levofloxacin) and MDR-A. baumannii (AB-29, drug resistance: 11 kinds of antibiotics including cephalosporins), along with three pathogenic bacteria, E. coli (ATCC 25922), S. aureus (ATCC 6538), and A. baumannii (309-14) were included in the study. A single colony of each bacterium was cultured in Luria-Bertani (LB) medium at 37°C and 180 rpm for 12–16 h until the logarithmic growth phase for use.
(§2) The MIC of the peptides against a range of bacteria was determined using the microbroth dilution method with slight modifications ([62]). In brief, the bacteria mentioned above were dispersed in the LB (10^5 CFU mL^−1) and were mixed with gradient concentrations (0.25 μM–16 μM) of SAMPs in the 96-well plate (n = 3). After incubation at 37°C for 16–18 h, the absorbance at 600 nm was measured using a microplate reader (Thermo Fisher Scientific, Multiskan MK3, China). The lowest peptide concentration with no absorbance increase was defined as the MICs. The bacterial solution in the 96-well plate was then transferred to solid LB medium to culture single colonies (n = 3), and the lowest peptide concentration at which almost no colonies survive (less than 0.01%) was defined as the MBCs.

MDR-E. coli (LZ-7) = assay type: cell-based, Escherichia coli
Description: as §1, §2

[1] = tested on: S. aureus, E. coli, A. baumannii, MDR-E. coli, MDR-A. baumannii; assay type: cell-based
Description: as §1, §2

E. coli = assay type: cell-based, Escherichia coli; conditions: 12 h
Description: as §2
(§3) Based on previous methods, stability was analyzed by monitoring the changes in the antimicrobial efficacy of SAMPs in the presence of salts and serum ([37], [38]). The SAMPs underwent incubation with physiological salts (150 mM NaCl, 4.5 mM KCl) or serum at 37°C for 12 h, followed by measurement of their MICs using the previously outlined method (n = 3).

S. aureus = assay type: cell-based, Staphylococcus aureus; conditions: 12 h
Description: as §2, §3

S. aureus (ATCC 6538) = assay type: cell-based, Staphylococcus aureus
Description: as §1, §2

A. baumannii (309-14) = assay type: cell-based, Acinetobacter baumannii
Description: as §1, §2

MDR-A. baumannii (AB-29) = assay type: cell-based, Acinetobacter baumannii
Description: as §1, §2

S. aureus and E. coli = test: Drug resistance assay (serial passage); assay type: cell-based; conditions: Colistin E 4 μg mL−1, 30 days
Description: The evaluation of drug resistance in SAMPs was performed through MIC value detection ([74]). Resistance was defined as a greater than fourfold increase in the MIC from its initial value. S. aureus and E. coli grown in LB medium supplemented with 0.5 × MIC of each SAMP were repeated for 30 days, followed by determination of MIC values using the same methodology outlined above (n = 3). Meanwhile, Colistin E (4 μg mL^-1) was used as the control group to induce bacterial resistance in the same way.

Row | Substance | MBC (E. coli (ATCC 25922); ATCC 25922) | MIC (E. coli (ATCC 25922); ATCC 25922) | MBC (MDR-E. coli (LZ-7); MDR- (LZ-7)) | MIC (MDR-E. coli (LZ-7); MDR- (LZ-7)) | MIC after treatment, KCl (E. coli) | MIC after treatment, NaCl (E. coli) | MIC after treatment, Serum (E. coli) | MIC after treatment, KCl (S. aureus) | MIC after treatment, NaCl (S. aureus) | MIC after treatment, Serum (S. aureus) | MBC (S. aureus (ATCC 6538); ATCC 6538) | MIC (S. aureus (ATCC 6538); ATCC 6538) | MBC (A. baumannii (309-14); 309-14) | MIC (A. baumannii (309-14); 309-14) | MBC (MDR-A. baumannii (AB-29); MDR- (AB-29)) | MIC (MDR-A. baumannii (AB-29); MDR- (AB-29)) | further results
1 | FLKLRLWKRLLWKLK-NH2 [KR] | 0.5 µM | 0.25 µM | 4 µM | 1 µM | 0.25 µM | 0.25 µM | 0.25 µM | 0.25 µM | 0.25 µM | 0.25 µM | 0.5 µM | 0.25 µM | 0.25 µM | 0.25 µM | 0.25 µM | 0.25 µM | MIC, common pathogenic bacteria and MDR bacteria [1]: 0.25 to 2 µM
2 | FLKLRLWGKLLWKLK-NH2 [GK] | 8 µM | 2 µM | 16 µM | 16 µM | 2 µM | 2 µM | 2 µM | 1 µM | 1 µM | 1 µM | 2 µM | 1 µM | 4 µM | 2 µM | 4 µM | 1 µM | 
3 | Colistin E [reference compound] |  |  |  |  |  |  |  |  |  |  |  |  |  |  |  |  | antimicrobial activity after resistance induction (S. aureus and E. coli): significant decrease in the antimicrobial activity; MIC (E. coli (ATCC 25922); E. coli, microbroth dilution in LB, 10^5 CFU mL−1, 37°C, 16–18 h, absorbance 600 nm, n = 3): 256 µM; MIC (MDR-E. coli (LZ-7); MDR-E. coli, microbroth dilution in LB, 10^5 CFU mL−1, 37°C, 16–18 h, absorbance 600 nm, n = 3): >256 µM; MIC (S. aureus (ATCC 6538); S. aureus, microbroth dilution in LB, 10^5 CFU mL−1, 37°C, 16–18 h, absorbance 600 nm, n = 3): >256 µM; MIC (A. baumannii (309-14); A. baumannii, microbroth dilution in LB, 10^5 CFU mL−1, 37°C, 16–18 h, absorbance 600 nm, n = 3): 32 µM; MIC (MDR-A. baumannii (AB-29); MDR-A. baumannii, microbroth dilution in LB, 10^5 CFU mL−1, 37°C, 16–18 h, absorbance 600 nm, n = 3): 128 µM
4 | FLKLRLWKKLLWKLK-NH2 [KK] | 4 µM | 0.5 µM | 8 µM | 2 µM | 0.5 µM | 1 µM | 0.5 µM | 0.5 µM | 1 µM | 0.5 µM | 2 µM | 0.5 µM | 1 µM | 0.5 µM | 1 µM | 0.5 µM | 
5 | FLKLRLWRKLLWKLK-NH2 [RK] | 1 µM | 0.25 µM | 4 µM | 2 µM | 0.25 µM | 0.25 µM | 0.25 µM | 0.25 µM | 0.25 µM | 0.25 µM | 1 µM | 0.25 µM | 0.5 µM | 0.5 µM | 0.5 µM | 0.25 µM | MIC, common pathogenic bacteria and MDR bacteria [1]: 0.25 to 2 µM
6 | FLALALIQEAIAKLK-NH2 [FA, Kassporin-KS1, reference compound] | >128 µM | >32 µM | >128 µM | >32 µM |  |  |  |  |  |  | >128 µM | >32 µM | >128 µM | >32 µM | >128 µM | >32 µM | MIC, three prevalent pathogenic bacteria [1]: > 32 µM
7 | FLKLRLWRRLLWKLK-NH2 [RR] | 2 µM | 0.5 µM | 8 µM | 2 µM | 0.5 µM | 1 µM | 0.5 µM | 0.5 µM | 0.5 µM | 0.5 µM | 2 µM | 0.5 µM | 1 µM | 1 µM | 2 µM | 0.5 µM | 
8 | FLKLRLWGRLLWKLK-NH2 [GR] | 8 µM | 2 µM | 16 µM | 16 µM | 2 µM | 2 µM | 2 µM | 1 µM | 1 µM | 1 µM | 2 µM | 1 µM | 2 µM | 2 µM | 2 µM | 0.5 µM | 
